According to US20230174548A1, “SYMBIOTIC PRODRUGS FOR THE TREATMENT OF CANCER AND OTHER DISEASES” (BOARD OF REGENTS OF THE UNIVERSITY OF NEBRASKA, priority 2020, published 2023):

How the values were obtained:
[1] = test system: FTE282E1, OVSAHO, HPNE, MiaPaCa2 and S2013 cell lines; experiment: growth inhibition assays in a panel of five cell lines; conditions: for potency rank among inhibitors treated as single agents: irrespective of the cell line
[2] = target: T1, IKKβ (Homo sapiens, UniProt O14920); experiment: target engagement in A2780 cells (click chemistry pull-down, Western blot); format: cell-based; conditions: 48 h
T1 construct: endogenous in cells; host or cells: A2780
Procedure: (§1) Briefly, the cells were incubated with 10 μM of compound 4 for […]. In cells, compound 4 is converted to compound 3 with an active methylene group which reacts with surface-exposed cysteine residues on proteins. The lysate was treated with click reagents (TCEP, TBTA and CuSO4) and azido-biotin. Biotin-tagged-3-bound proteins were subjected to monoavidin column. Biotin-tagged proteins were captured, the column was washed to removed untagged proteins and the biotin-tagged-3-bound proteins were eluted with regeneration buffer (6M urea/PBS). The eluted lysates were subjected to Western blot analyses and probed for proteins (IKKβ, RELA, IκBα and IKKγ) in the IKK complex.
(§2) To determine target engagement in cells, cancer cells (A2780) were treated with the compound 4, which is an alkyne-tagged analog of prodrug compound 19-AP1 for 48 h (FIG. 2B). Cells were then harvested, washed and pelleted. Unbound compound 4 was removed by extensively washing the cell pellet. The cell pellets were lysed, and 2 mg/mL of lysates were subjected to click chemistry with TAMRA-Biotin-Azide trifunctional probe (10 mM stock, 20 μL, click chemistry tools), and other click reagents (TCEP, 100 mM stock, 20 μL; TBTA 13.5 mM stock, 20 μL and CuSO4 100 mM stock, 10 μL) to make total volume of 1 mL. The reaction was incubated for 3 h at RT. The lysates were incubated with monomeric avidin beads for additional 1 h. […]

[3] = target: T2, RELA (Homo sapiens, UniProt Q04206); experiment: as above; format: cell-based; conditions: 48 h
T2 construct: endogenous in cells; host or cells: A2780
Procedure: as §1, §2

[4] = target: CDK4 (Homo sapiens, UniProt P11802); experiment: cell-free CDK inhibitor assay; format: biochemical; conditions: for fold less potent than palbociclib: CDK4; for IC50: CDK4, cell-free
[5] = target: CDK6 (Homo sapiens, UniProt Q00534); experiment: cell-free CDK inhibitor assay; format: biochemical; conditions: for fold less potent than palbociclib: CDK6; for IC50: CDK6, cell-free
[6] = test system: FT282E1 immortalized fallopian tube epithelial cell line; experiment: growth inhibition, synergy studies; format: cell-based; conditions: for IC50: Epithelial cell, FT282E1, read-out: IC50 (Mean ± SD)
[7] = test system: FT282C11 immortalized fallopian tube epithelial cell line; experiment: growth inhibition, synergy studies; format: cell-based; conditions: read-out: IC50 (Mean ± SD)
[8] = test system: CaOV3 ovarian cancer cell line; experiment: growth inhibition, synergy studies; format: cell-based; conditions: Homo sapiens, Caov-3, read-out: IC50 (Mean ± SD)
[9] = test system: OVCAR5 ovarian cancer cell line; experiment: growth inhibition, synergy studies; format: cell-based; conditions: Homo sapiens, OVCAR-5, read-out: IC50 (Mean ± SD)
[10] = test system: OVCAR8 ovarian cancer cell line; experiment: growth inhibition, synergy studies; format: cell-based; conditions: Homo sapiens, OVCAR-8, read-out: IC50 (Mean ± SD)
[11] = test system: A2780 ovarian cancer cell line; experiment: growth inhibition, synergy studies; format: cell-based; conditions: Homo sapiens, read-out: IC50 (Mean ± SD)
[12] = test system: Kuramochi ovarian cancer cell line; experiment: growth inhibition, synergy studies; format: cell-based; conditions: read-out: IC50 (Mean ± SD)
[13] = test system: OVCAR4 ovarian cancer cell line; experiment: growth inhibition, synergy studies; format: cell-based; conditions: Homo sapiens, OVCAR-4, read-out: IC50 (Mean ± SD)
[14] = test system: OVSAHO ovarian cancer cell line; experiment: growth inhibition, synergy studies; format: cell-based; conditions: for IC50: Homo sapiens, OVSAHO, read-out: IC50 (Mean ± SD)
[15] = test system: SKOV3 ovarian cancer cell line; experiment: growth inhibition, synergy studies; format: cell-based; conditions: for IC50: Homo sapiens, SK-OV-3, SKOV3, read-out: IC50 (Mean ± SD)
[16] = test system: SNU119 ovarian cancer cell line; experiment: growth inhibition, synergy studies; format: cell-based; conditions: read-out: IC50 (Mean ± SD)
[17] = test system: 9 ovarian cancer and 2 immortalized fallopian tube epithelial cell lines; experiment: growth inhibition, expanded panel, average over cell lines; format: cell-based; conditions: average over 11 cell lines
Source text: The ^AveCI for compound 5 in SKOV3 cells was 0.2 indicating strong synergism.

[18] = cysteine binding assay using Ellman's reagent; format: physicochemical; conditions: 19 vs prodrug under similar conditions
Source text: Without wishing to be bound by theory, it is believed that the α-methylene-γ-butyrolactone moiety on compound 19 is reactive toward biological nucleophiles such as glutathione and cysteine. To determine if secondary amine prodrug of compound 19 (Compound 19-AP1) results in improved stability, the reactivity of analog compound 19 and the prodrug compound 19-AP1 was compared in a cysteine binding assay using Ellman's reagent (FIG. 1B).

[19] = test system: A2780 ovarian cancer line; experiment: 72 h growth inhibition assay; format: cell-based; conditions: Homo sapiens, A2780, 72 h
Procedure: (§3) The cancer cell growth-inhibitory potential of amine-prodrugs (compounds 19-AP1 and 19-AP2) was evaluated. Compounds 19, 19-AP1 and 19-AP2 were screened in ovarian cancer lines (A2780, and OVSAHO) and immortalized fallopian tube epithelial cells (FT282E1) in a 72 h growth inhibition assay.

[20] = test system: FT282E1 immortalized fallopian tube epithelial cells; experiment: 72 h growth inhibition assay; format: cell-based; conditions: Epithelial cell; FT282E1, 72 h
Procedure: as §3

[21] = test system: OVSAHO ovarian cancer line; experiment: 72 h growth inhibition assay; format: cell-based; conditions: for IC50: Homo sapiens, 72 h
Procedure: as §3

[22] = 19F NMR kinetics of release of compound 19 from prodrug; format: physicochemical; conditions: release of 4-trifluoromethylpiperidine
Source text: Next, to assess the kinetics of the release of the active compound 19 from the prodrug compound 19-AP1, the release of 4trifluoropiperidine from the prodrug compound 19-AP1 was monitored using ^19F-NMR spectroscopy following a reported method. (Woods, Mo, Bieberich, Alavanja, & Colby, 2011). […] This observation is consistent with previously reported studies with a prodrug of parthenolide.

[23] = Phase II and III clinical trials; cited from earlier work

CDK6, sequence (Q00534 whole entry): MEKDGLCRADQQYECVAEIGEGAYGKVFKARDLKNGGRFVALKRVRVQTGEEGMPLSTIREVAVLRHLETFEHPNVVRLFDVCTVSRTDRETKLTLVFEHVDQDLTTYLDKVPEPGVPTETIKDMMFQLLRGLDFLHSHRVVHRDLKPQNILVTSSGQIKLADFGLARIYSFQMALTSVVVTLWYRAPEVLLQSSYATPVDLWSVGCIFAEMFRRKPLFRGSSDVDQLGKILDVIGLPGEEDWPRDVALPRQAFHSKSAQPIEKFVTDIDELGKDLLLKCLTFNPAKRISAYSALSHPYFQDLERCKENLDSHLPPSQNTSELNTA
CDK6, sequence (P30281 whole entry partner): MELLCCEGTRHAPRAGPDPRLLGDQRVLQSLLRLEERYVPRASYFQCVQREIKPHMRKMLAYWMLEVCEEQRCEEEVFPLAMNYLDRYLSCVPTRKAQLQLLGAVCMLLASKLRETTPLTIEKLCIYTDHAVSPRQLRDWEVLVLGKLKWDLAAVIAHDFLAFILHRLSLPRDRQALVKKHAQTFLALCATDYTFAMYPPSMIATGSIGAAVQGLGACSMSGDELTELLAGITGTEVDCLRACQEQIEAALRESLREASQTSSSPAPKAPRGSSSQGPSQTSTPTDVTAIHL
CDK4, sequence (P11802 whole entry): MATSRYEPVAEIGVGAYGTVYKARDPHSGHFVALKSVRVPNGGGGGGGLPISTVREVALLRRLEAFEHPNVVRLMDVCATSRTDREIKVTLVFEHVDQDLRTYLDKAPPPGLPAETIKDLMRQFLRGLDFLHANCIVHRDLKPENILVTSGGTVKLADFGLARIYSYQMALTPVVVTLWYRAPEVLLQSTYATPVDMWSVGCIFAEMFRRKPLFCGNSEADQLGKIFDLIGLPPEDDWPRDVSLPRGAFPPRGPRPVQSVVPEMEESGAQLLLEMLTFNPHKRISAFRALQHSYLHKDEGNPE
CDK4, sequence (P24385 whole entry partner): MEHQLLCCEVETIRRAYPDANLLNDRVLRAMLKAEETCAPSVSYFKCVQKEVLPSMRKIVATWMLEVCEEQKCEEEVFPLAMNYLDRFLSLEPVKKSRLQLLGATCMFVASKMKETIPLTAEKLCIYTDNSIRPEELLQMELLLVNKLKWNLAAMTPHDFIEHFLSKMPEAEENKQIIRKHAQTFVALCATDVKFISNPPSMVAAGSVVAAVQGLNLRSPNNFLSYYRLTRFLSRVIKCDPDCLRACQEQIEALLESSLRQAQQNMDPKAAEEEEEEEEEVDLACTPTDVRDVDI
T2 sequence (Q04206 whole entry): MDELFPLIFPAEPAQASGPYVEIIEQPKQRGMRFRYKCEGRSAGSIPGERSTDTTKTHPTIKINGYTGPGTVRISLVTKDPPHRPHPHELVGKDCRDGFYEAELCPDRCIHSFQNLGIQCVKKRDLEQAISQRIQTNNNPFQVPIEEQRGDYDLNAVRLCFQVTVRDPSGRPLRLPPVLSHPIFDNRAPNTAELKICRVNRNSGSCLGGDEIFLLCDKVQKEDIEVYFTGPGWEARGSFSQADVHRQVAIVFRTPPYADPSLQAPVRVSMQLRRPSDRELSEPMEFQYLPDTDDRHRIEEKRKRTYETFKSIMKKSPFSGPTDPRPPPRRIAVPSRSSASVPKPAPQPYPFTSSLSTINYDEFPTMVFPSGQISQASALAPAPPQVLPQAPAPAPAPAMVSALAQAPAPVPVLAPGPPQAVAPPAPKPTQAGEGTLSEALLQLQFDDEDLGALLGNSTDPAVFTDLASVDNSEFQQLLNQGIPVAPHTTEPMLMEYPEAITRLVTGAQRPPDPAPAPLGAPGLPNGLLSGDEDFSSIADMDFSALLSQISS
T1 sequence (O14920 whole entry): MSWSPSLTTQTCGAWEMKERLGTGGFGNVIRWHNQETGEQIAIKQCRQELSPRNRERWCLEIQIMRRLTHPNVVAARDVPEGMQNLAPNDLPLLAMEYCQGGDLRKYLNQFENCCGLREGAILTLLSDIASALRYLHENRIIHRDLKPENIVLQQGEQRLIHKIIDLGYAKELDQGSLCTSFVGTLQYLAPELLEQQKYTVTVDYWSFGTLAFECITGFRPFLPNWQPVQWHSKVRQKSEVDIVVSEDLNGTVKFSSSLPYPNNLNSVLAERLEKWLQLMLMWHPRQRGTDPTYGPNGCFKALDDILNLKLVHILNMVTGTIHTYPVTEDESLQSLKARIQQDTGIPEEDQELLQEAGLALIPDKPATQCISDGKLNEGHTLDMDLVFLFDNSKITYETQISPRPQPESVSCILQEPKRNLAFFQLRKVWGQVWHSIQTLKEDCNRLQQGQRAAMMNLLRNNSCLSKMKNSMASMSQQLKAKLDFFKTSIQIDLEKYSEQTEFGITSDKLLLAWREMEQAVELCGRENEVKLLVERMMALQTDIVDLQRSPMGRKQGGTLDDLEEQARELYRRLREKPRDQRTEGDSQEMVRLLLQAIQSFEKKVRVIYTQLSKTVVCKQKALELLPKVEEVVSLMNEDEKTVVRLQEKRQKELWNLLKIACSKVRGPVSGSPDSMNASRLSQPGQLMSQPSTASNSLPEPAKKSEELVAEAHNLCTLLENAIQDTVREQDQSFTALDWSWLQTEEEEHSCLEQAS

O=C(NC1CCNCC1)c1[nH]ncc1NC(=O)c1c(Cl)cccc1Cl [AT7519, reference compound]
potency rank among inhibitors treated as single agents [1]: AT7519>compound 19>parthenolide>palbociclib

C#CCN1C(=O)C2(CC(CN3CCC(C(F)(F)F)CC3)C(=O)O2)c2ccccc21 (stereo not drawn) [Compound 4, 1′-(prop-2-yn-1-yl)-4-((4-(trifluoromethyl)piperidin-1-yl)methyl)-3,4-dihydro-5H-spiro[furan2,3′-indoline]-2′,5-dione]
covalent binding of IKKβ protein [2]: observed | covalent binding of RELA protein [3]: observed

CC(=O)c1c(C)c2cnc(Nc3ccc(N4CCN(CC5CC6(OC5=O)C(=O)Nc5ccccc56)CC4)cn3)nc2n(C2CCCC2)c1=O (stereo not drawn) [Compound 5, 4-((4-(6-((6-Acetyl-8-cyclopentyl-5-methyl-7-oxo-7,8-dihydropyrido[2,3-d]pyrimidin-2yl)amino)pyridin-3-yl)piperazin-1-yl)methyl)-3,4-dihydro-5H-spiro[furan-2,3′-indoline]-2′,5dione]
fold less potent than palbociclib [4]: ~100 fold | IC50 [4]: 0.046 ± 0.014 µM | fold less potent than palbociclib [5]: ~20 fold | IC50 [5]: 0.009 ± 0.001 µM | IC50 [6]: 14.6 ± 1.2 µM | average combination index (AveCI) ([6]; FT282E1 cells): > 1.0 | IC50 [7]: 21.8 ± 1.5 µM | IC50 [8]: 5.5 ± 0.5 µM | IC50 [9]: 9.3 ± 0.9 µM | IC50 [10]: 9.1 ± 0.9 µM | IC50 [11]: 6.6 ± 1.3 µM | IC50 [12]: > 40 µM | IC50 [13]: 17.9 ± 1.4 µM | IC50 [14]: 11.4 ± 0.9 µM | average combination index (AveCI) ([14]; OVSAHO cells, effective dose (ED) 50, 75 and 90): 0.9 | IC50 [15]: 15.4 ± 1.5 µM | average combination index (AveCI) ([15]; SKOV3 cells): 0.2 | IC50 [16]: 8.8 ± 1.6 µM | fold less potent than the corresponding 1:1 mixture, on an average [17]: equipotent | fold more potent than the parthenolide-palbociclib compound 6 [17]: ~3 fold

CC(=O)c1c(C)c2cnc(Nc3ccc(N4CCN(CC5C(=O)O[C@@H]6[C@H]7O[C@]7(C)CCC/C=C(\C)C[C@@H]56)CC4)cn3)nc2n(C2CCCC2)c1=O (stereo partly drawn) [Compound 6, 6-Acetyl-8-cyclopentyl-2-((5-(4-(((3R,3aS,9aR,10aS,10bS,E)-6,9a-dimethyl-2-oxo2,3,3a,4,5,8,9,9a,10a,10b-decahydrooxireno[2′,3′:9,10]cyclodeca[1,2-b]furan-3yl)methyl)piperazin-1-yl)pyridin-2-yl)amino)-5-methylpyrido[2,3-d]pyrimidin-7(8H)-one]
fold less potent than palbociclib [4]: ~200 fold | IC50 [4]: 0.085 ± 0.018 µM | fold less potent than palbociclib [5]: ~50 fold | IC50 [5]: 0.018 ± 0.001 µM | IC50 [6]: > 40 µM | IC50 [7]: 25.6 ± 4.8 µM | IC50 [8]: 25 ± 3.2 µM | IC50 [9]: 32.6 ± 4.4 µM | IC50 [10]: 38.4 ± 4.5 µM | IC50 [11]: 31 ± 7 µM | IC50 [12]: > 40 µM | IC50 [13]: > 40 µM | IC50 [14]: 31.1 ± 2.3 µM | IC50 [15]: > 40 µM | IC50 [16]: 34.9 ± 6.3 µM | fold less potent than the corresponding 1:1 mixture, on an average [17]: ~7 fold

O=C(NC1CCN(CC2CC3(OC2=O)C(=O)Nc2ccccc23)CC1)c1n[nH]cc1NC(=O)c1c(Cl)cccc1Cl (stereo not drawn) [Compound 7, 4-(2,6-dichlorobenzamido)-N-(1-((2′,5-dioxo-4,5-dihydro-3H-spiro[furan-2,3′-indolin]-4yl)methyl)piperidin-4-yl)-1H-pyrazole-3-carboxamide]
potency relative to the palbociclib based compounds (compounds 5 and 6) [1]: more potent

C/C1=C\CCC[C@@]2(C)O[C@@H]2[C@H]2OC(=O)C(CN3CCC(NC(=O)c4n[nH]cc4NC(=O)c4c(Cl)cccc4Cl)CC3)[C@@H]2C1 (stereo partly drawn) [Compound 8, 4-(2,6-dichlorobenzamido)-N-(1-(((3R,3aS,9aR,10aS,10bS,E)-6,9a-dimethyl-2-oxo2,3,3a,4,5,8,9,9a,10a,10b-decahydrooxireno[2′,3′:9,10]cyclodeca[1,2-b]furan-3yl)methyl)piperidin-4-yl)-1H-pyrazole-3-carboxamide]
potency relative to the palbociclib based compounds (compounds 5 and 6) [1]: more potent

C=C1CC2(OC1=O)C(=O)Nc1ccccc12 (stereo not drawn) [Compound 19, 4-methylene-3,4-dihydro-5H-spiro(furan-2,3′-indoline)-2′,5-dione, reference compound]
reactivity towards free cysteine [18]: reacted rapidly | IC50 [19]: 2.15 ± 0.15 µM | IC50 [20]: 5.28 ± 0.17 µM | IC50 [21]: 20.4 ± 4.71 µM | potency rank among inhibitors treated as single agents [1]: AT7519>compound 19>parthenolide>palbociclib

O=C1OC2(CC1CN1CCC(C(F)(F)F)CC1)C(=O)Nc1ccccc12 (stereo not drawn) [Compound 19-AP1, 4-((4-(trifluoromethyl)piperidin-1-yl)methyl)-3,4-dihydro-5H-spiro[furan-2,3′-indoline]-2′,5dione]
reactivity towards free cysteine [18]: more stable | period over which the prodrug is hydrolyzed slowly to release the active compound 19 [22]: 72 h | IC50 [19]: 5.71 ± 0.24 µM | IC50 [20]: 10.2 ± 0.56 µM | potency relative to parent compound 19 [21]: more potent | IC50 [21]: 10.8 ± 1.28 µM

CN(C)CC1CC2(OC1=O)C(=O)Nc1ccccc12 (stereo not drawn) [Compound 19-AP2, 4-((dimethylamino)methyl)-3,4-dihydro-5H-spiro[furan-2,3′-indoline]-2′,5-dione]
IC50 [19]: 5.38 ± 0.33 µM | IC50 [20]: 12 ± 1.26 µM | potency relative to parent compound 19 [21]: more potent | IC50 [21]: 9.81 ± 1.07 µM

COc1cccc2c1C(=O)c1c(O)c3c(c(O)c1C2=O)C[C@@](O)(/C(CO)=N/NC(=O)CCCCCN1C(=O)C=CC1=O)C[C@@H]3O[C@H]1C[C@H](N)[C@H](O)[C@H](C)O1 [INNO-206]
cardiotoxicity profile compared with doxorubicin [23]: far superior
